{"source": "ChEMBL document CHEMBL3600301", "about": "“CholesteroNitrones for Stroke” (J Med Chem, 2015)", "key": {"[1]": {"experiment": "Protection against oxygen-glucose deprivation-induced cytotoxicity in Sprague-Dawley rat cerebral cortex primary neuronal cell cultures assessed as increase in cell viability at 5 uM added at onset of recovery period and measured during recovery for 5 days by MTT assay (reference value: 0.842 AU)", "type": "functional, Primary neuron"}, "Primary neuron [2]": {"system": "Primary neuron", "experiment": "Protection against oxygen-glucose deprivation-induced cytotoxicity in Sprague-Dawley rat cerebral cortex primary neuronal cell cultures assessed as increase in cell viability at 1 uM added at onset of recovery period by MTT assay", "type": "functional, tissue-based"}, "Primary neuron [3]": {"system": "Primary neuron", "experiment": "Protection against oxygen-glucose deprivation-induced cytotoxicity in Sprague-Dawley rat cerebral cortex primary neuronal cell cultures assessed as increase in cell viability at 1 and 5 uM added at onset of recovery period and measured during recovery for 5 days by MTT assay", "type": "functional, tissue-based"}, "Primary neuron [4]": {"system": "Primary neuron", "experiment": "Protection against oxygen-glucose deprivation-induced cytotoxicity in Sprague-Dawley rat cerebral cortex primary neuronal cell cultures assessed as increase in cell viability at 5 uM added at onset of recovery period by MTT assay", "type": "functional, tissue-based"}, "[5]": {"experiment": "Protection against oxygen-glucose deprivation-induced cytotoxicity in Sprague-Dawley rat cerebral cortex primary neuronal cell cultures assessed as increase in cell viability at 1 uM added at onset of recovery period and measured during recovery for 5 days by MTT assay (reference value: 0.842 AU)", "type": "functional, Primary neuron"}, "Primary neuron [6]": {"system": "Primary neuron", "experiment": "Protection against oxygen-glucose deprivation-induced cytotoxicity in Sprague-Dawley rat cerebral cortex primary neuronal cell cultures assessed as increase in cell viability at 1 and 5 uM added after 48 hrs post recovery period and measured during recovery for 5 days by MTT assay", "type": "functional, tissue-based"}, "Primary neuron [7]": {"system": "Primary neuron", "experiment": "Protection against oxygen-glucose deprivation-induced cytotoxicity in Sprague-Dawley rat cerebral cortex primary neuronal cell cultures assessed as increase in cell viability at 0.1 to 250 uM added at onset of recovery period by MTT assay", "type": "functional, tissue-based"}, "Primary neuron [8]": {"system": "Primary neuron", "experiment": "Protection against oxygen-glucose deprivation-induced cytotoxicity in Sprague-Dawley rat cerebral cortex primary neuronal cell cultures assessed as increase in cell viability at 250 uM added after 48 hrs post recovery period and measured during recovery for 5 days by MTT assay", "type": "functional, tissue-based"}, "Primary neuron [9]": {"system": "Primary neuron", "experiment": "Protection against oxygen-glucose deprivation-induced cytotoxicity in Sprague-Dawley rat cerebral cortex primary neuronal cell cultures assessed as increase in cell viability at 250 uM added at onset of recovery period by MTT assay", "type": "functional, tissue-based"}, "Rattus norvegicus [10]": {"system": "Rattus norvegicus", "experiment": "Neuroprotection in Wistar rat model of ischemia assessed as reduction ischemia-induced neuronal apoptosis in hippocampal CA1 regions at 40 mg/kg, ip dosed at onset of reperfusion period and measured on 5 days of reperfusion by TUNEL assay", "type": "functional", "design": "scale not given: the % may be the effect or the level left"}, "Primary neuron [11]": {"system": "Primary neuron", "experiment": "Protection against oxygen-glucose deprivation-induced cytotoxicity in Sprague-Dawley rat cerebral cortex primary neuronal cell cultures assessed as increase in cell viability at 250 uM added at onset of recovery period and measured during recovery for 5 days by MTT assay", "type": "functional, tissue-based"}, "Rattus norvegicus [12]": {"system": "Rattus norvegicus", "experiment": "Neuroprotection in Wistar rat model of ischemia assessed as reduction ischemia-induced neuronal apoptosis in cortical regions at 40 mg/kg, ip dosed at onset of reperfusion period and measured on 5 days of reperfusion by TUNEL assay", "type": "functional", "design": "scale not given: the % may be the effect or the level left"}, "Rattus norvegicus [13]": {"system": "Rattus norvegicus", "experiment": "Neuroprotection in Wistar rat model of ischemia assessed as reduction ischemia-induced neuronal death in hippocampal CA1 regions at 40 mg/kg, ip dosed at onset of reperfusion period and measured on 5 days of reperfusion by fluoro jade B staining based fluorescence microscopy", "type": "functional", "design": "scale not given: the % may be the effect or the level left"}, "Rattus norvegicus [14]": {"system": "Rattus norvegicus", "experiment": "Neuroprotection in Wistar rat model of ischemia assessed as reduction in neurological deficit score at 40 mg/kg measured after 5 days of reperfusion", "type": "functional, organism-based"}, "Rattus norvegicus [15]": {"system": "Rattus norvegicus", "experiment": "Neuroprotection in Wistar rat model of ischemia assessed as reduction ischemia-induced neuronal death in cortical regions at 40 mg/kg, ip dosed at onset of reperfusion period and measured on 5 days of reperfusion by fluoro jade B staining based fluorescence microscopy", "type": "functional", "design": "scale not given: the % may be the effect or the level left"}, "[16]": {"experiment": "Toxicity in Sprague-Dawley rat cerebral cortex primary neuronal cell cultures under oxygen-glucose deprivation conditions assessed as […] in cell viability at >50 uM added at onset of recovery period by MTT assay", "type": "tissue-based", "conditions": "primary neuron"}, "Rattus norvegicus [17]": {"system": "Rattus norvegicus", "experiment": "Neuroprotection in Wistar rat model of ischemia assessed as reduction ischemia-induced neuronal death in cortical regions at 0.1 mg/kg, ip dosed at onset of reperfusion period and measured on 5 days of reperfusion by fluoro jade B staining based fluorescence microscopy", "type": "functional", "design": "scale not given: the % may be the effect or the level left"}, "[18]": {"experiment": "Toxicity in Sprague-Dawley rat cerebral cortex primary neuronal cell cultures under oxygen-glucose deprivation conditions assessed as […] in cell viability at >10 uM added at onset of recovery period by MTT assay", "type": "tissue-based", "conditions": "primary neuron"}, "Rattus norvegicus [19]": {"system": "Rattus norvegicus", "experiment": "Neuroprotection in Wistar rat model of ischemia assessed as reduction ischemia-induced neuronal death in hippocampal CA1 regions at 0.05 mg/kg, ip dosed at onset of reperfusion period and measured on 5 days of reperfusion by fluoro jade B staining based fluorescence microscopy", "type": "functional", "design": "scale not given: the % may be the effect or the level left"}, "Primary neuron [20]": {"system": "Primary neuron", "experiment": "Reduction of oxygen-glucose deprivation-induced ROS generation in Sprague-Dawley rat cerebral cortex primary neuronal cell cultures at 1 to 10 uM measured at 2 hrs of recovery after oxygen-glucose deprivation by fluorescence assay", "type": "functional, tissue-based"}, "Rattus norvegicus [21]": {"system": "Rattus norvegicus", "experiment": "Neuroprotection in Wistar rat model of ischemia assessed as reduction in neurological deficit score at 0.1 mg/kg measured after 5 days of reperfusion (reference value: 2.5 +/- 0.34 No unit)", "type": "functional"}, "Rattus norvegicus [22]": {"system": "Rattus norvegicus", "experiment": "Neuroprotection in Wistar rat model of ischemia assessed as reduction ischemia-induced neuronal apoptosis in hippocampal CA1 regions at 0.05 and 0.1 mg/kg, ip dosed at onset of reperfusion period and measured on 5 days of reperfusion by TUNEL assay", "type": "functional", "design": "scale not given: the % may be the effect or the level left"}, "Primary neuron [23]": {"system": "Primary neuron", "experiment": "Reduction of oxygen-glucose deprivation-induced lipid peroxidation in Sprague-Dawley rat cerebral cortex primary neuronal cell cultures assessed as reduction in MDA level at 5 uM measured at 4 hrs of recovery after oxygen-glucose deprivation by TBARS based colorimetric and fluorometric assay", "type": "functional, tissue-based"}, "Rattus norvegicus [24]": {"system": "Rattus norvegicus", "experiment": "Neuroprotection in Wistar rat model of ischemia assessed as reduction in neurological deficit score at 0.005 mg/kg measured after 5 days of reperfusion (reference value: 2.5 +/- 0.34 No unit)", "type": "functional"}, "Rattus norvegicus [25]": {"system": "Rattus norvegicus", "experiment": "Neuroprotection in Wistar rat model of ischemia assessed as reduction ischemia-induced neuronal death in hippocampal CA1 regions at 0.1 mg/kg, ip dosed at onset of reperfusion period and measured on 5 days of reperfusion by fluoro jade B staining based fluorescence microscopy", "type": "functional", "design": "scale not given: the % may be the effect or the level left"}, "Rattus norvegicus [26]": {"system": "Rattus norvegicus", "experiment": "Neuroprotection in Wistar rat model of ischemia assessed as reduction ischemia-induced neuronal death in cortical regions at 0.05 mg/kg, ip dosed at onset of reperfusion period and measured on 5 days of reperfusion by fluoro jade B staining based fluorescence microscopy", "type": "functional", "design": "scale not given: the % may be the effect or the level left"}, "Rattus norvegicus [27]": {"system": "Rattus norvegicus", "experiment": "Neuroprotection in Wistar rat model of ischemia assessed as reduction ischemia-induced neuronal apoptosis in cortical regions at 0.05 and 0.1 mg/kg, ip dosed at onset of reperfusion period and measured on 5 days of reperfusion by TUNEL assay", "type": "functional", "design": "scale not given: the % may be the effect or the level left"}}, "note": "Calls of active or inactive are those of the source. The calls are words filed in the database; no cut-off is given here.", "data": [{"smiles": "CC(C)CCC[C@@H](C)[C@H]1CC[C@H]2[C@@H]3CCC4=C/C(=[N+](/C)[O-])CC[C@]4(C)[C@H]3CC[C@]12C", "values": [{"measurement": "Activity", "setting": "[1]", "result": 0.998, "unit": "a.u."}, {"measurement": "Activity", "setting": "Primary neuron [2]", "result": "inactive"}, {"measurement": "Activity", "setting": "Primary neuron [3]", "result": "Active"}, {"measurement": "Activity", "setting": "Primary neuron [4]", "result": "inactive"}, {"measurement": "Activity", "setting": "[5]", "result": 0.888, "unit": "a.u."}, {"measurement": "Activity", "setting": "Primary neuron [6]", "result": "Active"}]}, {"smiles": "CC(C)CCC[C@@H](C)[C@H]1CC[C@H]2[C@@H]3CC=C4CC(=O)CC[C@]4(C)[C@H]3CC[C@]12C", "values": [{"measurement": "Activity", "setting": "Primary neuron [7]", "result": "inactive"}]}, {"smiles": "CC(C)(C)/[N+]([O-])=C/c1ccc(S(=O)(=O)[O-])cc1S(=O)(=O)[O-].[Na+].[Na+]", "values": [{"measurement": "Activity", "setting": "Primary neuron [8]", "result": "inactive"}, {"measurement": "Activity", "setting": "Primary neuron [9]", "result": "Active"}, {"measurement": "Activity", "setting": "Rattus norvegicus [10]", "result": 21, "unit": "%"}, {"measurement": "Activity", "setting": "Primary neuron [11]", "result": "inactive"}, {"measurement": "Activity", "setting": "Rattus norvegicus [12]", "result": 55, "unit": "%"}, {"measurement": "Activity", "setting": "Rattus norvegicus [13]", "result": 17, "unit": "%"}, {"measurement": "Activity", "setting": "Rattus norvegicus [14]", "result": "inactive"}, {"measurement": "Activity", "setting": "Rattus norvegicus [15]", "result": 66, "unit": "%"}]}, {"smiles": "CC(C)CCC[C@@H](C)[C@H]1CC[C@H]2[C@@H]3CCC4=CC(=O)CC[C@]4(C)[C@H]3CC[C@]12C", "note": "[4-CHOLESTEN 3-ONE]", "values": [{"measurement": "Activity", "setting": "Primary neuron [7]", "result": "inactive"}, {"measurement": "Activity", "setting": "[16]", "result": "Toxic"}]}, {"smiles": "CC(C)CCC[C@@H](C)[C@H]1CC[C@H]2[C@@H]3CCC4=C/C(=[N+](\\C)[O-])CC[C@]4(C)[C@H]3CC[C@]12C", "values": [{"measurement": "Activity", "setting": "[1]", "result": 0.995, "unit": "a.u."}, {"measurement": "Activity", "setting": "Primary neuron [2]", "result": "Active"}, {"measurement": "Activity", "setting": "Primary neuron [3]", "result": "Active"}, {"measurement": "Activity", "setting": "Rattus norvegicus [17]", "result": 83, "unit": "%"}, {"measurement": "Activity", "setting": "Primary neuron [4]", "result": "Active"}, {"measurement": "Activity", "setting": "Primary neuron [9]", "result": "Active"}, {"measurement": "Activity", "setting": "[18]", "result": "Toxic"}, {"measurement": "Activity", "setting": "Rattus norvegicus [19]", "result": 17, "unit": "%"}, {"measurement": "Activity", "setting": "Primary neuron [20]", "result": "Active"}, {"measurement": "Activity", "setting": "Rattus norvegicus [21]", "result": 1.25}, {"measurement": "Activity", "setting": "Rattus norvegicus [22]", "result": 30, "unit": "%"}, {"measurement": "Activity", "setting": "Primary neuron [23]", "result": "Active"}, {"measurement": "Activity", "setting": "Rattus norvegicus [24]", "result": 0.5}, {"measurement": "Activity", "setting": "Rattus norvegicus [25]", "result": 27, "unit": "%"}, {"measurement": "Activity", "setting": "[5]", "result": 0.931, "unit": "a.u."}, {"measurement": "Activity", "setting": "Rattus norvegicus [26]", "result": 66, "unit": "%"}, {"measurement": "Activity", "setting": "Primary neuron [6]", "result": "Active"}, {"measurement": "Activity", "setting": "Rattus norvegicus [27]", "result": 89, "unit": "%"}]}]}
